According to the NIST ThermoML archive (doi:10.1016/j.jct.2012.05.003):
± gives the expanded uncertainty stated by the source.

How the values were obtained:
[1] = Molar enthalpy of transition or fusion; conditions: Crystal; Adiabatic calorimetry
[2] = molar heat capacity at saturation pressure; conditions: Vacuum adiabatic calorimetry

O=C1c2ccccc2-c2ccccc21 [9(9H)-fluorenone]
Conditions	Molar enthalpy of transition or fusion [kJ/mol]
[1]	16.36 ± 0.014

molar heat capacity [J/K/mol], [2]
Conditions	Crystal	Liquid
4.566 K	0.46 ± 0.017	–
5 K	0.6 ± 0.025	–
5.528 K	0.77 ± 0.025	–
6.434 K	1.22 ± 0.042	–
7.474 K	1.88 ± 0.058	–
8.581 K	2.71 ± 0.083	–
9.685 K	3.71 ± 0.12	–
10 K	4.02 ± 0.042	–
10.85 K	4.87 ± 0.05	–
12.11 K	6.26 ± 0.058	–
13.44 K	7.86 ± 0.067	–
14.97 K	9.678 ± 0.075	–
16.65 K	11.82 ± 0.091	–
18.49 K	14.15 ± 0.1	–
20 K	16.01 ± 0.11	–
20.45 K	16.55 ± 0.11	–
22.62 K	19.26 ± 0.12	–
25.08 K	22.19 ± 0.14	–
27.79 K	25.34 ± 0.15	–
30 K	27.82 ± 0.075	–
30.74 K	28.64 ± 0.075	–
33.98 K	32.05 ± 0.083	–
37.55 K	35.61 ± 0.091	–
40 K	37.94 ± 0.091	–
41.59 K	39.4 ± 0.091	–
46.13 K	43.45 ± 0.1	–
50 K	46.83 ± 0.11	–
51.2 K	47.85 ± 0.11	–
56.87 K	52.2 ± 0.12	–
56.9 K	52.18 ± 0.12	–
60 K	54.38 ± 0.12	–
62.55 K	56.09 ± 0.12	–
62.62 K	56.16 ± 0.12	–
68.7 K	60.3 ± 0.13	–
70 K	61.14 ± 0.13	–
72.85 K	62.96 ± 0.13	–
75.63 K	64.74 ± 0.13	–
80 K	67.46 ± 0.14	–
83.16 K	69.38 ± 0.14	–
84.2 K	70.02 ± 0.15	–
90 K	73.43 ± 0.22	–
91.53 K	74.32 ± 0.22	–
92.55 K	74.86 ± 0.22	–
100 K	79.14 ± 0.22	–
100.6 K	79.46 ± 0.22	–
101.73 K	80.16 ± 0.22	–
109.97 K	84.81 ± 0.22	–
119.46 K	90.1 ± 0.22	–
120 K	90.41 ± 0.22	–
129.35 K	95.77 ± 0.23	–
139.36 K	101.53 ± 0.23	–
140 K	101.91 ± 0.23	–
149.34 K	107.42 ± 0.24	–
159.36 K	113.33 ± 0.25	–
160 K	113.73 ± 0.25	–
169.39 K	119.4 ± 0.26	–
179.42 K	125.52 ± 0.27	–
180 K	125.91 ± 0.27	–
189.44 K	131.93 ± 0.27	–
199.45 K	138.28 ± 0.27	–
200 K	138.65 ± 0.27	–
209.47 K	144.93 ± 0.28	–
219.38 K	151.48 ± 0.29	–
220 K	151.91 ± 0.29	–
229.4 K	158.17 ± 0.3	–
239.49 K	164.92 ± 0.31	–
240 K	165.3 ± 0.31	–
249.56 K	172.03 ± 0.32	–
259.56 K	178.91 ± 0.32	–
260 K	179.23 ± 0.32	–
269.56 K	185.84 ± 0.33	–
279.57 K	192.92 ± 0.34	–
280 K	193.1 ± 0.34	–
289.32 K	199.64 ± 0.35	–
296.08 K	204.14 ± 0.35	–
298.15 K	205.82 ± 0.36	–
299.29 K	206.68 ± 0.36	–
300 K	207.11 ± 0.36	–
305.5 K	210.87 ± 0.36	–
308.47 K	212.74 ± 0.36	–
309.21 K	213.37 ± 0.37	–
315.7 K	218.21 ± 0.37	–
316.59 K	218.89 ± 0.37	–
320 K	221.01 ± 0.37	–
324.75 K	224.49 ± 0.37	–
325.3 K	224.82 ± 0.37	–
332.95 K	230.04 ± 0.38	–
335.34 K	231.75 ± 0.38	–
340 K	235.18 ± 0.39	282.8 ± 0.44
340.05 K	–	282.82 ± 0.44
341.17 K	235.83 ± 0.39	–
345.34 K	238.85 ± 0.39	–
349.26 K	–	287 ± 0.45
349.41 K	242.52 ± 0.4	–
356.52 K	247.86 ± 0.4	290.4 ± 0.45
359.51 K	–	291.82 ± 0.46
360 K	–	291.97 ± 0.46
363.97 K	–	293.73 ± 0.46
364.32 K	–	293.78 ± 0.46
367.03 K	–	295.01 ± 0.46
373.93 K	–	298.26 ± 0.47
380 K	–	301.01 ± 0.47
386.08 K	–	303.75 ± 0.47
398.35 K	–	309.31 ± 0.47
400 K	–	310.04 ± 0.47
410.74 K	–	314.78 ± 0.48
420 K	–	318.92 ± 0.48
423.26 K	–	320.37 ± 0.49
435.5 K	–	325.69 ± 0.49
440 K	–	327.65 ± 0.5
447.89 K	–	331.01 ± 0.5
460 K	–	336.07 ± 0.51
460.14 K	–	336.12 ± 0.51
472.54 K	–	341.25 ± 0.52
477.16 K	–	343.14 ± 0.52
480 K	–	344.22 ± 0.52
487.83 K	–	347.32 ± 0.52
490.73 K	–	348.64 ± 0.52
499.62 K	–	352.16 ± 0.52
500 K	–	352.28 ± 0.52
505.44 K	–	354.68 ± 0.53
509.99 K	–	356.21 ± 0.53
518.82 K	–	359.99 ± 0.53
519.26 K	–	360.18 ± 0.53
520 K	–	360.47 ± 0.53
